How the values were obtained:
complementary DNA = experiment: Thermal denaturation (UV melting) of AON duplexes with complementary DNA; type: binding; conditions: 1 μM of each strand, medium salt buffer pH 7.5, average of at least three runs
complementary RNA = experiment: Thermal denaturation (UV melting) of AON duplexes with complementary RNA; type: binding; conditions: 1 μM of each strand, medium salt buffer pH 7.5, average of at least three runs
Procedure: All 17 modified AONs have been purified as a single component on PAGE (20% polyacrylamide with 7 Molar urea), extracted with 0.3 M NaOAc and desalted with C-18 reverse phase cartridge to give AONs in >99% purity and correct mass have been obtained by MALDI-TOF mass spectroscopy for each one them (Table 1). Determination of the Tm of the AON/RNA hybrids was carried out in the following buffer: 57 mM Tris-HCl (pH 7.5), 57 mM KCl, 1 mM MgCl2. Absorbance was monitored at 260 nm in the temperature range from 20° C. to 90° C. using UV spectrophotometer equipped with Peltier temperature programmer with the heating rate of 1° C. per minute. Prior to measurements, the samples (1 μM of AON and 1 μM RNA mixture) were pre-annealed by heating to 90° C. for 5 min followed by slow cooling to 4° C. and 30 min equilibration at this temperature and are average of at least three independent runs.

[1] = Stability of 5′-32P-labeled AONs in human blood serum (PAGE autoradiography); type: in vitro ADME; conditions: human blood serum, 21° C.
Procedure: FIG. 4. Autoradiograms of 20% denaturing PAGE showing degradation patterns of 5′-^32P-labeled AONs in human blood serum (Table 1 for all AON sequences). Inset A: AON 1 and LNA-modified AONs 2-5. Inset B: Carbocyclic-LNA-modified AONs 6-9. Inset C: Carbocyclic-ENA-modified AONs 10-13 and Inset D: aza-ENA-modified AONs 14-17. Time points are taken after 0, ½, 1 h, 2 h, 5 h, 7 h, 9 h, 12 h, for AONs 1-5 and 0 h, 6 h, 8 h, 12 h, 24 h, 36 h and 48 h of incubation for AONs 6-17 at 21° C. (see Experimental Section for details).
Modified sequences (Table 1), ^32P-labeled at 5′-ends, were digested in human blood serum at 21° C. as shown in the PAGE autoradiograms (Insets A, B, C and D in FIG. 4). In order to understand
AONs (6 μL) at 2 μM concentration (5′-end ^32P labeled with specific activity 80 000 cpm) were incubated in […] of human blood serum (male AB) at 21° C. (total reaction volume was 36 μL) and the experiments were repeated twice up to 48 h. Aliquots (3 μL) were taken at 0, 30 min, 1, 2, 5, 7, 8, 9, 12, 24, 36, 48 h and quenched with 7 μL of solution containing 8 M urea and 50 mM EDTA, resolved in 20% polyacrylamide denaturing (7 M urea) gel electrophoresis and visualized by autoradiography. […] Since no new prominent cleavage products were found toward the later time points, we considered those prominent stable initial fragments as 100% during the last time points (12-48 h).

E. coli RNase H1 = E. coli RNase H1 (Escherichia coli, UniProt P0A7Y4); conditions: AON/RNA duplex
E. coli RNase H1, sequence (P0A7Y4 whole entry): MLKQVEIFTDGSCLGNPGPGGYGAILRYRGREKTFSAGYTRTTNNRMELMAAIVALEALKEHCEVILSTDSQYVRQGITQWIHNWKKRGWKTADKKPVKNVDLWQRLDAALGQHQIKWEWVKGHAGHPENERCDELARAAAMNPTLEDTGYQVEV
Procedure: Autoradiograms of 20% denaturing PAGE, showing the cleavage kinetics of 5′-^32P-labeled target RNA by E. coli RNase H1 in the AONs 1-17 after 2, 5, 10, 15, 30 and 60 min of incubation. Conditions of cleavage reactions: RNA (0.8 μM) and AONs (4 μM) in buffer containing 20 nM Tris-HCL (pH 8.0), 20 mM KCL, 10 mM Mgcl2, and 0.1 mM DTT at 21° C.; 0.04 U of RNase H1. Inset A: LNA-T modified AONs 2-5 with native AON 1. Inset B: carbocyclic-LNA-T modified AONs 6-9. Inset C: carbocyclic-ENA-T modified AONs 10-13 with native AON 1. Inset D: aza-ENA-T modified AONs 14-17 with native AON 1. The graphs in Insets E, F, G, and H show the kinetics of RNase H1 mediated cleavage of the target RNA, the remaining fraction of target RNA is measured densitometrically and plotted as a function of time fitted to a single exponential decay function. Inset E: AON 1 with AONs 2-5. Inset F: for AON 1 with AONs 6-9. Inset G: AON 1 and AONs 10-13. Inset H: AON 1 and AONs 14-17.
The cleavage rates of RNase H digestion were determined by densitometric quantification of gels and subsequently by plotting the uncleaved RNA fraction as a function of time (Insets E-H in FIG. 6). The reaction rates were obtained by fitting the degradation curves to single-exponential decay functions.

Substance: 3′-d(CTTCTTTTTTACTTC)-5′ (DNA, backbone not given here) [AON 1]
- Tm/° C. with DNA (complementary DNA): 45 °C
- Tm/° C. with RNA (complementary RNA): 44 °C
- time to full degradation [1]: ≤ 12 h
- RNase H cleavage pattern of the RNA compliment (E. coli RNase H1): cleaved quite randomly with a slight preference after A-8 position

Source: patent US8461124B2, “Five- and six-membered conformationally locked 2′,4′-carbocyclic ribo-thymidines for the treatment of infections and cancer” (priority 2007, dated 2013)
